# Experimental data: patent US20160022751A1, “NOVEL COMPOSITION FOR TREATING ALZHEIMER'S DISEASE AND IMPROVING COGNITIVE FUNCTION OF ALZHEIMER'S PATIENTS” (GANGNEUNG-WONJU NATIONAL UNIVERSITY INDUSTRY ACADEMY …, priority 2014, published 2016)
# Legend:
# IDE = IDE mRNA expression in HMO6 human microglial cells (qPCR); assay type: cell-based
# Procedure: (§1) HMO6 human microglial cell line was kindly provided by Dr. SU Kim (Chung-Ang University, Korea). HMO6 cells were grown in Dulbecco's Modified Eagle's Medium (DMEM) (Hyclone, USA) supplemented with 10% fetal bovine serum, 100 U/ml penicillin, and 100 μg/ml streptomycin (Invitrogen, USA). Cultures were maintained under 5% CO2 at 37° C. in tissue culture flasks. Cells were grown to >90% confluency and subjected to no more than 20 cell passages. Medium was changed every 2-3 days. Subconfluent cells were harvested and seeded at a density of 5×10^5 cells or 5×10^6 cells in poly-L-lysine-coated 35-mm or 60-mm culture plates. After 24 h of plating, the medium was replaced with serum-free DMEM, washed once with phosphate buffered saline (PBS), and treated with Rg3 or Aβ42.
# Total RNA extracts from HMO6 cells or perfused brain tissue were prepared using the Trizol method (Invitrogen). cDNA was synthesized from RNA by reverse transcription of 1 μg total RNA using the Improm-II reverse transcription system (Promega, Wis., USA) and oligo dT primers in a total volume of 20 μl. PCR amplification was performed using the primers listed in Table 1 (Bioneer, Korea). qPCR reactions were run on a Rotor-Gene 6000 (Corbett Research, Sydney, Australia) using a SensiMix™ SYBR Hi-ROX Kit (Bioline, UK) in 20 μl reaction mixtures. Each real-time-PCR master mix contained 10 μl 2× enzyme master mix, 7 μl RNase free water, 1 μl of each primer (10 pM each), and 1 μl diluted template. The PCR was performed with an initial pre-incubation step for 15 min at 95° C., followed by 45 cycles of 95° C. for 15 s, annealing at 52° C. for 15 s, and extension at 72° C. for 10 s. […] Relative sample expression levels were calculated using Rotor-Gene 6000 Series Software 1.7 and were expressed relative to β-actin for mice or glyceraldehyde 3-phosphate dehydrogenase for HMO6 cells and corrected for between-run variability. Data for the experimental samples are expressed as a percentage of the internal control gene. […]
# SRA = SRA mRNA expression in HMO6 human microglial cells (qPCR); assay type: cell-based; conditions: Rg3-treated HMO6 cells (FIG. 14)
# Procedure: as §1, with “After 24 h of plating, the medium was replaced with serum-free DMEM, washed once with phosphate buffered saline (PBS), and treated with Rg3 or Aβ42.” left out
# Total RNA extracts from HMO6 cells or perfused brain tissue were prepared using the Trizol method (Invitrogen). cDNA was synthesized from RNA by reverse transcription of 1 μg total RNA using the Improm-II reverse transcription system (Promega, Wis., USA) and oligo dT primers in a total volume of 20 μl. […] Relative sample expression levels were calculated using Rotor-Gene 6000 Series Software 1.7 and were expressed relative to β-actin for mice or glyceraldehyde 3-phosphate dehydrogenase for HMO6 cells and corrected for between-run variability. Data for the experimental samples are expressed as a percentage of the internal control gene. […]
# NEP = NEP protein expression in HMO6 cells (western blot, immunocytochemistry); assay type: cell-based, human; conditions: 5 μg/ml Rg3, 24 h (FIG. 19)
# Procedure: FIG. 19 represents an images showing a result of western blot analysis of the expression of NEP (neprilysin) and IDE (insulin-degrading enzyme) in HMO6 cells (A); graphs representing the above result quantitatively (B and C), and fluorescence microscopic images representing immunocytochemical analyses (D and E). The expression of NEP and IDE in HMO6 cells was analyzed by western blot analysis and immunocytochemistry after treating Aβ42 (5 μM) or Rg3 (2.5 or 5 μg/ml) for 24 h to HMO6 cells in serum-free DMEM medium plated on 60 mm cell culture plates or chamber slides. The results are shown as mean±SD. * P<0.05, ** P<0.01, *** P<0.001.
# HMO6 cells were lysed in 1% RIPA buffer containing protease and phosphatase inhibitors (Roche, Mannheim, Germany) and whole-cell lysates were separated on 10% sodium dodecyl sulfate-polyacrylamide gel electrophoresis. After electrophoresis, the proteins were transferred to polyvinylidene fluoride membranes, and the membranes were blocked with 5% skim milk in Tris-buffered saline solution containing 0.1% Tween-20. The membranes were then immunoblotted with primary antibodies, anti-phospho-p38, anti-p38, anti-phospho-ERK, anti-ERK, and anti-f3-actin (Santa Cruz Biotechnology, USA), followed by incubation with horseradish peroxidase-conjugated anti-rabbit or anti-mouse secondary antibodies (Stressgen, USA). […]
# caveolin1 = test: Caveolin1 immunocytochemistry in HMO6 cells; assay type: cell-based, human; conditions: Rg3 5 μg/ml, 24 h, immunocytochemistry (FIG. 20)
# Procedure: FIG. 20 is a fluorescence microscopic image showing a result of immunocytochemical analysis investigating the expression of caveolin and clathrin in HMO6 cells treated with or without Rg3. HMO6 cells were treated with Rg3 (5 μg/ml) for 24 h after plated on chamber slides and then the cells were stained with primary antibodies binding specifically to caveolin and clathrin, respectively and counterstained with DAPI. The length of scale bar represents 10 μm.
# The present inventors investigated whether ginsenosides can induce the expression of SRA, clathrin, caveolin 1, NEP or IDE and the differentiation of neurons actually through immunocytochemical analysis (ICC) and microscopic observations. Specifically, Cultured HMO6 cells were fixed in 4% paraformaldehyde (in 1×PBS) for 15 min, washed twice with 1×PBS supplemented with 100 mM glycine for 5 min, and incubated with permeabilization buffer consisting of 0.1% Triton X-100 (Sigma-Aldrich, USA) in 1×PBS for 30 min at room temperature. Blocking was performed with 1% bovine serum albumin (BSA, Sigma-Aldrich, USA) for 30 min at room temperature. Then, SRA, clathrin, caveolin1, NEP, or IDE mouse monoclonal antibody (1:200; Santa Cruz Biotechnology, USA) was added to 1% BSA in PBS with Tween 20 (PBST) and incubated for 2 h at room temperature. […]
# [1] = Rg3-treated HMO6 cells (FIG. 14)
compound,measurement,setting,value
CC(C)=CCC[C@](C)(O)[C@H]1CC[C@]2(C)[C@@H]1[C@H](O)C[C@@H]1[C@@]3(C)CC[C@H](O[C@@H]4O[C@H](CO)[C@@H](O)[C@H](O)[C@H]4O[C@@H]4O[C@H](CO)[C@@H](O)[C@H](O)[C@H]4O)C(C)(C)[C@@H]3CC[C@]12C [ginsenoside Rg3],IDE mRNA,"IDE; HMO6 cells, Aβ42 (5 μM) and/or Rg3 (2.5 or 5 μg/ml), 24 h (FIG. 15E)",increased significantly
same,IDE expression versus untreated control group,IDE; [1],about six-fold higher
same,IDE mRNA expression,IDE; [1],dose-dependently increased
same,SRA mRNA expression,SRA,dose-dependently increased
same,NEP expression in cells,NEP,distinctively expressed
same,caveolin1 expression,caveolin1,highly expressed
